In ChEMBL document CHEMBL1949508, “The selective cytotoxic activity in breast cancer cells by an anthranilic alcohol-derived acyclic 5-fluorouracil O,N-acetal is mediated by endoplasmic reticulum stress-induced apoptosis” (Eur J Med Chem, 2012):
The source made the active and inactive calls. No cut-off for these calls is given here.

Assays:
MCF7 [1] = test: Downregulation of FAIM gene in human MCF7 cells at 1.09 uM after 48 hrs by microarray hybridization relative to control; assay type: functional
MCF7 [2] = test: Downregulation of CCL2 gene in human MCF7 cells at 1.09 uM after 48 hrs by microarray hybridization relative to control; assay type: functional
MCF-10A [3] = test: Upregulation of BBC3 gene in human MCF10A cells at 37.67 uM after 48 hrs by microarray hybridization relative to control; assay type: functional, cell-based
MCF-10A [4] = test: Upregulation of MTL5 gene in human MCF10A cells at 37.67 uM after 48 hrs by microarray hybridization relative to control; assay type: functional, cell-based
MCF-10A [5] = test: Upregulation of BMF gene in human MCF10A cells at 37.67 uM after 48 hrs by microarray hybridization relative to control; assay type: functional, cell-based
MCF-10A [6] = test: Upregulation of BNIP3L gene in human MCF10A cells at 37.67 uM after 48 hrs by microarray hybridization relative to control; assay type: functional, cell-based
MCF-10A [7] = test: Upregulation of BNIP3 gene in human MCF10A cells at 37.67 uM after 48 hrs by microarray hybridization relative to control; assay type: functional, cell-based
MCF-10A [8] = test: Upregulation of GADD45A gene in human MCF10A cells at 37.67 uM after 48 hrs by microarray hybridization relative to control; assay type: functional, cell-based
MCF-10A [9] = test: Upregulation of CARD14 gene in human MCF10A cells at 37.67 uM after 48 hrs by microarray hybridization relative to control; assay type: functional, cell-based
MCF-10A [10] = test: Upregulation of GADD45B gene in human MCF10A cells at 37.67 uM after 48 hrs by microarray hybridization relative to control; assay type: functional, cell-based
MCF-10A [11] = test: Upregulation of DNASE1 gene in human MCF10A cells at 37.67 uM after 48 hrs by microarray hybridization relative to control; assay type: functional, cell-based
MCF-10A [12] = test: Upregulation of NOXA gene in human MCF10A cells at 37.67 uM after 48 hrs by microarray hybridization relative to control; assay type: functional, cell-based
MCF-10A [13] = test: Downregulation of UNC5C gene in human MCF10A cells at 37.67 uM after 48 hrs by microarray hybridization relative to control; assay type: functional, cell-based
MCF-10A [14] = test: Downregulation of CARD9 gene in human MCF10A cells at 37.67 uM after 48 hrs by microarray hybridization relative to control; assay type: functional, cell-based
MCF-10A [15] = test: Downregulation of AVEN gene in human MCF10A cells at 37.67 uM after 48 hrs by microarray hybridization relative to control; assay type: functional, cell-based
MCF-10A [16] = test: Downregulation of BCL2 gene in human MCF10A cells at 37.67 uM after 48 hrs by microarray hybridization relative to control; assay type: functional, cell-based
MCF-10A [17] = test: Downregulation of BAG2 gene in human MCF10A cells at 37.67 uM after 48 hrs by microarray hybridization relative to control; assay type: functional, cell-based
MCF-10A [18] = test: Downregulation of CD14 gene in human MCF10A cells at 37.67 uM after 48 hrs by microarray hybridization relative to control; assay type: functional, cell-based
MCF-10A [19] = test: Downregulation of E2F1 gene in human MCF10A cells at 37.67 uM after 48 hrs by microarray hybridization relative to control; assay type: functional, cell-based
MCF-10A [20] = test: Downregulation of […] gene in human MCF10A cells at 37.67 uM after 48 hrs by microarray hybridization relative to control; assay type: functional, cell-based
MCF-10A [21] = test: Downregulation of TP5313 gene in human MCF10A cells at 37.67 uM after 48 hrs by microarray hybridization relative to control; assay type: functional, cell-based
MCF-10A [22] = test: Downregulation of FAIM gene in human MCF10A cells at 37.67 uM after 48 hrs by microarray hybridization relative to control; assay type: functional, cell-based
MCF-10A [23] = test: Downregulation of CCL2 gene in human MCF10A cells at 37.67 uM after 48 hrs by microarray hybridization relative to control; assay type: functional, cell-based
MCF7 [24] = test: Upregulation of BBC3 gene in human MCF7 cells at 1.09 uM after 48 hrs by quantitative RT-PCR analysis; assay type: functional, cell-based
MCF-10A [25] = test: Upregulation of BBC3 gene in human MCF10A cells at 37.67 uM after 48 hrs by quantitative RT-PCR analysis; assay type: functional, cell-based
MCF7 [26] = test: Upregulation of NOXA gene in human MCF7 cells at 1.09 uM after 48 hrs by quantitative RT-PCR analysis; assay type: functional, cell-based
MCF7 [27] = test: Modulation of p53 gene expression in human MCF7 cells at 1.09 uM after 48 hrs by quantitative RT-PCR analysis; assay type: functional, cell-based
MCF7 [28] = test: Modulation of Apaf-1 gene expression in human MCF7 cells at 1.09 uM after 48 hrs by quantitative RT-PCR analysis; assay type: functional, cell-based
MCF7 [29] = test: Downregulation of Bcl2 gene expression in human MCF7 cells at 1.09 uM after 48 hrs by quantitative RT-PCR analysis; assay type: functional, cell-based
MCF7 [30] = test: Upregulation of BBC3 protein expression in human MCF7 cells at […] after 48 hrs by Western blot analysis relative to control; assay type: functional
MCF-10A [31] = test: Upregulation of BBC3 protein expression in human MCF10A cells at 37.67 uM after 48 hrs by Western blot analysis relative to control; assay type: functional
[32] = Therapeutic index, ratio of IC50 for human MCF10A cells to IC50 for human MCF7 cells; assay type: cell-based; conditions: MCF10A cells and MCF7 cells, read-out: Ratio IC50

Q: Which results are given for `COC(CN(c1ccccc1CO)S(=O)(=O)c1ccccc1N)n1cc(F)c(=O)[nH]c1=O` (racemic)?
A: fold change (FC) (MCF7 [1]): -3.1; fold change (FC) (MCF7 [2]): -3.77; Activity (MCF-10A [3]): inactive; Activity (MCF-10A [4]): inactive; Activity (MCF-10A [5]): inactive; Activity (MCF-10A [6]): inactive; Activity (MCF-10A [7]): inactive; Activity (MCF-10A [8]): inactive; Activity (MCF-10A [9]): inactive; Activity (MCF-10A [10]): inactive; Activity (MCF-10A [11]): inactive; Activity (MCF-10A [12]): inactive; Activity (MCF-10A [13]): inactive; Activity (MCF-10A [14]): inactive; Activity (MCF-10A [15]): inactive; Activity (MCF-10A [16]): inactive; Activity (MCF-10A [17]): inactive; Activity (MCF-10A [18]): inactive; Activity (MCF-10A [19]): inactive; Activity (MCF-10A [20]): inactive; Activity (MCF-10A [21]): inactive; Activity (MCF-10A [22]): inactive; Activity (MCF-10A [23]): inactive; Activity (MCF7 [24]): Active; Activity (MCF-10A [25]): inactive; Activity (MCF7 [26]): Active; Activity (MCF7 [27]): inactive; Activity (MCF7 [28]): inactive; Activity (MCF7 [29]): Active; fold change (FC) (MCF7 [30]): 2.74; fold change (FC) (MCF-10A [31]): 1.13; selectivity ratio [32]: 34.5
